In US10105357B2, “Indication of antibiotic drugs for preparation of cancer inhibition pharmaceutical composition” (LAUNX BIOMEDICAL CO., LTD., priority 2014, dated 2018):
Read-outs that look alike come from different tables or passages of the source.

Tests used:
cancer cell lines = assay: Cell viability analysis (WST-1) on cancer cell lines; format: cell-based, human; conditions: drug 10 μM, 72 hours, WST-1; Table 3
[1] = tested on: HI650 (Lung Adenocarcinoma); assay: Cell viability analysis, lung cancer HI650; format: cell-based, human; conditions: Homo sapiens, NCI-H1650, 72 h
[2] = tested on: A549 (Lung Adenocarcinoma); assay: Cell viability analysis, lung cancer A549; format: cell-based, human; conditions: Homo sapiens, A549, 72 h
[3] = tested on: AGS (Gastric Adenocarcinoma); assay: Cell viability analysis, gastric cancer AGS; format: cell-based, human; conditions: Homo sapiens, 72 h
[4] = tested on: MKN-45 (Gastric Adenocarcinoma); assay: Cell viability analysis, gastric cancer MKN-45; format: cell-based, human; conditions: Homo sapiens, MKN-45, 72 h
[5] = tested on: HepG2 (Hepatocellular Carcinoma); assay: Cell viability analysis, hepatic cancer HepG2; format: cell-based, human; conditions: Homo sapiens, HepG2, 72 h
[6] = tested on: Hep3B (hepatocellular carcinoma); assay: Cell viability analysis, hepatic cancer Hep3B; format: cell-based, human; conditions: Homo sapiens, 72 h; Hep3B; repeated experiment; read-out: The results of antibiotic drug inhibiting cancer cell lines (cell viability analysis), Hep3B
[7] = tested on: LoVo (Colorectal Adenocarcinoma); assay: Cell viability analysis, colon cancer LoVo; format: cell-based, human; conditions: Homo sapiens, LoVo, 72 h
[8] = tested on: A375 (Amelanotic Melanoma); assay: Cell viability analysis, skin cancer A375; format: cell-based, human; conditions: Homo sapiens, A-375, 72 h
[9] = tested on: BCC (basal cell carcinoma); assay: Cell viability analysis, skin cancer BCC; format: cell-based, human; conditions: Homo sapiens, 72 h; BCC; repeated experiment; read-out: The results of antibiotic drug inhibiting cancer cell lines (cell viability analysis), BCC
[10] = tested on: HeLa (Cervix Adenocarcinoma); assay: Cell viability analysis, cervical cancer HeLa; format: cell-based, human; conditions: Homo sapiens, HeLa, 72 h, HeLa
[11] = tested on: C-33A (Cervical carcinoma); assay: Cell viability analysis, cervical cancer C-33A; format: cell-based, human; conditions: Homo sapiens, 72 h; C-33A; repeated experiment; read-out: The results of antibiotic drug inhibiting cancer cell lines (cell viability analysis), C-33A
[12] = tested on: PC3 (p53−) (Prostate Adenocarcinoma); assay: Cell viability analysis, prostate cancer PC3; format: cell-based, human; conditions: Homo sapiens, 72 h
T24 = assay: Cell viability analysis, bladder cancer T24; format: cell-based, human; conditions: Homo sapiens, T-24, 72 h; T24; repeated experiment; read-out: The results of antibiotic drug inhibiting cancer cell lines (cell viability analysis), T24
[13] = tested on: MCF7 (Mammary Gland, Adenocarcinoma); assay: Cell viability analysis, breast cancer MCF7; format: cell-based, human; conditions: Homo sapiens, MCF7, 72 h
[14] = tested on: MDA-MB-231 (Mammary Gland, Adenocarcinoma); assay: Cell viability analysis, breast cancer MDA-MB-231; format: cell-based, human; conditions: Homo sapiens, MDA-MB-231, 72 h; MDA-MB231; repeated experiment; read-out: The results of antibiotic drug inhibiting cancer cell lines (cell viability analysis), MDA-MB231
BxPC-3 = assay: Cell viability analysis, pancreatic cancer BxPC-3; format: cell-based, human; conditions: Homo sapiens, 72 h; BxPC-3; repeated experiment; read-out: The results of antibiotic drug inhibiting cancer cell lines (cell viability analysis), BxPC-3
AsPC-1 = assay: Cell viability analysis, pancreatic cancer AsPC-1; format: cell-based, human; conditions: Homo sapiens, ASPC1, 72 h; AsPC-1; repeated experiment; read-out: The results of antibiotic drug inhibiting cancer cell lines (cell viability analysis), AsPC-1
NIH: OVCAR-3 = assay: Cell viability analysis, ovarian cancer NIH: OVCAR-3; format: cell-based, human; conditions: Homo sapiens, 72 h; NIH-OVCAR-3; repeated experiment; read-out: The results of antibiotic drug inhibiting cancer cell lines (cell viability analysis), NIH-OVCAR-3
TOV-21G = assay: Cell viability analysis, ovarian cancer TOV-21G; format: cell-based, human; conditions: Homo sapiens, TOV21G, 72 h; TOV-21G; repeated experiment; read-out: The results of antibiotic drug inhibiting cancer cell lines (cell viability analysis), TOV-21G
[15] = tested on: SAS (Tongue squamous cell carcinoma); assay: Cell viability analysis, tongue cancer SAS; format: cell-based, human; conditions: Homo sapiens, 72 h; SAS; repeated experiment; read-out: The results of antibiotic drug inhibiting cancer cell lines (cell viability analysis), SAS
U-2OS = assay: Cell viability analysis, osteosarcoma U-2OS; format: cell-based, human; conditions: Homo sapiens, 72 h; U2OS; repeated experiment; read-out: The results of antibiotic drug inhibiting cancer cell lines (cell viability analysis), U2OS
[16] = tested on: 786-O (Renal adenocarcinoma); assay: Cell viability analysis, renal cancer 786-O; format: cell-based, human; conditions: Homo sapiens, 786-0, 72 h; 786-O; repeated experiment; read-out: The results of antibiotic drug inhibiting cancer cell lines (cell viability analysis), 786-O
[17] = tested on: HL-60 (Acute Promyelocytic Leukemia); assay: Cell viability analysis, leukemia HL-60; format: cell-based, human; conditions: Homo sapiens, HL-60, 72 h, drug 10 μM, 72 hours, WST-1, OD450 nm; read-out: cell viability (survival rate), HL-60
[18] = tested on: HCT116 (p53+) (Colorectal Carcinoma)
[19] = H1650, repeated experiment, read-out: The results of antibiotic drug inhibiting cancer cell lines (cell viability analysis), H1650
[20] = drug 10 μM, 72 hours, WST-1, OD450 nm, read-out: cell viability (survival rate), H1650
[21] = A549, repeated experiment, read-out: The results of antibiotic drug inhibiting cancer cell lines (cell viability analysis), A549
[22] = drug 10 μM, 72 hours, WST-1, OD450 nm, read-out: cell viability (survival rate), A549
[23] = AGS, repeated experiment, read-out: The results of antibiotic drug inhibiting cancer cell lines (cell viability analysis), AGS
[24] = drug 10 μM, 72 hours, WST-1, OD450 nm, read-out: cell viability (survival rate), AGS
[25] = MKN-45, repeated experiment, read-out: The results of antibiotic drug inhibiting cancer cell lines (cell viability analysis), MKN-45
[26] = drug 10 μM, 72 hours, WST-1, OD450 nm, read-out: cell viability (survival rate), MKN-45
[27] = HepG2, repeated experiment, read-out: The results of antibiotic drug inhibiting cancer cell lines (cell viability analysis), HepG2
[28] = drug 10 μM, 72 hours, WST-1, OD450 nm, read-out: cell viability (survival rate), HepG2
[29] = read-out: The results of antibiotic drug inhibiting cancer cell lines (cell viability analysis), LoVo, repeated experiment
[30] = read-out: cell viability (survival rate), LoVo, drug 10 μM, 72 hours, WST-1, OD450 nm
[31] = A375, repeated experiment, read-out: The results of antibiotic drug inhibiting cancer cell lines (cell viability analysis), A375
[32] = drug 10 μM, 72 hours, WST-1, OD450 nm, read-out: cell viability (survival rate), A375
[33] = repeated experiment, read-out: The results of antibiotic drug inhibiting cancer cell lines (cell viability analysis), HeLa
[34] = drug 10 μM, 72 hours, WST-1, OD450 nm, read-out: cell viability (survival rate), HeLa
[35] = PC-3, repeated experiment, read-out: The results of antibiotic drug inhibiting cancer cell lines (cell viability analysis), PC-3
[36] = drug 10 μM, 72 hours, WST-1, OD450 nm, read-out: cell viability (survival rate), PC3
[37] = MCF-7, repeated experiment, read-out: The results of antibiotic drug inhibiting cancer cell lines (cell viability analysis), MCF-7
[38] = drug 10 μM, 72 hours, WST-1, OD450 nm, read-out: cell viability (survival rate), MCF7

SMILES | inhibition effect on different cancer cell lines (cancer cell lines) | viability at 10 µM [1, 19] | viability at 10 µM [1, 20] | viability at 10 µM [2, 21] | viability at 10 µM [2, 22] | viability at 10 µM [3, 23] | viability at 10 µM [3, 24] | viability at 10 µM [4, 25] | viability at 10 µM [4, 26] | viability at 10 µM [5, 27] | viability at 10 µM [5, 28] | viability at 10 µM [6] | viability at 10 µM [7, 29] | viability at 10 µM [7, 30] | viability at 10 µM [8, 31] | viability at 10 µM [8, 32] | viability at 10 µM [9] | viability at 10 µM [10, 33] | viability at 10 µM [10, 34] | viability at 10 µM [11] | further results
Cc1ccc2c(Cl)cc(Cl)c(O)c2n1 [Chlorquinaldol] | significant inhibition effect | 75.2% | 59.6% | 37.8% | 54.5% | 53.9% | 35.7% | 92.4% | 75.4% | 82% | 82.3% | 105% | 45.8% | 62.8% | 35.5% | 43% | 43% | 64.9% | 42.6% | 47.5% | viability at 10 µM [12, 35]: 66.4%; viability at 10 µM [12, 36]: 68.4%; viability at 10 µM (T24): 50.6%; viability at 10 µM [13, 37]: 30.2%; viability at 10 µM [13, 38]: 47.8%; viability at 10 µM [14]: 65%; viability at 10 µM (BxPC-3): 53.9%; viability at 10 µM (AsPC-1): 62.8%; viability at 10 µM (NIH: OVCAR-3): 78.1%; viability at 10 µM (TOV-21G): 40.1%; viability at 10 µM [15]: 20.6%; viability at 10 µM (U-2OS): 32.4%; viability at 10 µM [16]: 41.8%; viability at 10 µM [17]: 64.8%; viability [18]: 38.5%
CCCCCCCCCCCCCCCC[N+](C)(C)CCN(Cc1ccc(OC)cc1)c1ncccn1 [Thonzonium Bromide] | significant inhibition effect | 37.6% | 36.7% | 15% | 36.6% | 14.4% | 22.5% | 31.2% | 47% | 47.7% | 45.1% | 51.3% | 50.9% | 39.4% | 12.4% | 24.4% | 23.4% | 20.3% | 28% | 32.5% | viability at 10 µM [12, 35]: 29.3%; viability at 10 µM [12, 36]: 46.2%; viability at 10 µM (T24): 18.5%; viability at 10 µM [13, 37]: 41%; viability at 10 µM [13, 38]: 47%; viability at 10 µM [14]: 33.1%; viability at 10 µM (BxPC-3): 24.4%; viability at 10 µM (AsPC-1): 27.6%; viability at 10 µM (NIH: OVCAR-3): 55.7%; viability at 10 µM (TOV-21G): 17.4%; viability at 10 µM [15]: 20.4%; viability at 10 µM (U-2OS): 31.7%; viability at 10 µM [16]: 16.8%; viability at 10 µM [17]: 35.2%; viability [18]: 18.8%
CC(C)(C)CC(C)(C)c1ccc(O)c(Cc2ccc(Cl)cc2Cl)c1 [Clofoctol] | significant inhibition effect | 69.6% | 77% | 90.6% | 55.6% | 83.9% | 86.7% | 117% | 73.6% | 114% | 77.9% | 135% | 67.1% | 74.7% | 109% | 34.5% | 94.6% | 98% | 58% | 117% | viability at 10 µM [12, 35]: 110%; viability at 10 µM [12, 36]: 63.4%; viability at 10 µM (T24): 90.8%; viability at 10 µM [13, 37]: 83%; viability at 10 µM [13, 38]: 48.1%; viability at 10 µM [14]: 102%; viability at 10 µM (BxPC-3): 65.8%; viability at 10 µM (AsPC-1): 78.7%; viability at 10 µM (NIH: OVCAR-3): 97.8%; viability at 10 µM (TOV-21G): 73.1%; viability at 10 µM [15]: 73.2%; viability at 10 µM (U-2OS): 74.9%; viability at 10 µM [16]: 105%; viability at 10 µM [17]: 83%; viability [18]: 76.6%
